The source made the active and inactive calls.
Legend:
[1] = target: Cytochrome P450 2C9 (Homo sapiens, UniProt P11712)
[2] = viability loss in THP-1 monocytes – THP-1 cells, cytotoxicity control for Vif-APOBEC3G degradation inhibitor project, dose response (AID 1117359); assay type: functional; details: THP-1
[3] = viability loss in human Jurkat cells – cell-based, luminescence, cytotoxicity control for P. falciparum gametocyte viability project, dose response (AID 1117277); assay type: functional;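 also: potency reflects loss of cellular ATP meaning fewer viable cells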
[4] = viability inhibitors of stage V gametocytes – luminescence, dose response (AID 1117278); assay type: functional, cell-based;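 also: gametocytes exposed to compound for 24 hours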
[5] = target: DNA dC->dU-editing enzyme APOBEC-3G (Homo sapiens, UniProt Q9HC16); assay type: functional;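 also: Dose-response counterscreen measuring inhibition of APOBEC3G DNA deaminase activity, run while confirming APOBEC3A inhibitors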
[6] = target: DNA dC->dU-editing enzyme APOBEC-3A (Homo sapiens, UniProt P31941); test: Dose Response confirmation of small molecule APOBEC3A DNA Deaminase Inhibitors via a fluorescence-based single-stranded DNA deaminase assay. [Related pubchem assays (depositor defined):AID493011, AID493024]; assay type: functional
[7] = target: T1, Protein RecA (Mycobacterium tuberculosis, UniProt P9WHJ3); test: Fluorescence Cell-Free Homogeneous Dose Retest to Identify Inhibitors of RecA-Intein Splicing Activity. [Related pubchem assays (depositor defined):AID2097, AID2223, AID489010, AID492950]; assay type: functional
T1 sequence (P9WHJ3 whole entry): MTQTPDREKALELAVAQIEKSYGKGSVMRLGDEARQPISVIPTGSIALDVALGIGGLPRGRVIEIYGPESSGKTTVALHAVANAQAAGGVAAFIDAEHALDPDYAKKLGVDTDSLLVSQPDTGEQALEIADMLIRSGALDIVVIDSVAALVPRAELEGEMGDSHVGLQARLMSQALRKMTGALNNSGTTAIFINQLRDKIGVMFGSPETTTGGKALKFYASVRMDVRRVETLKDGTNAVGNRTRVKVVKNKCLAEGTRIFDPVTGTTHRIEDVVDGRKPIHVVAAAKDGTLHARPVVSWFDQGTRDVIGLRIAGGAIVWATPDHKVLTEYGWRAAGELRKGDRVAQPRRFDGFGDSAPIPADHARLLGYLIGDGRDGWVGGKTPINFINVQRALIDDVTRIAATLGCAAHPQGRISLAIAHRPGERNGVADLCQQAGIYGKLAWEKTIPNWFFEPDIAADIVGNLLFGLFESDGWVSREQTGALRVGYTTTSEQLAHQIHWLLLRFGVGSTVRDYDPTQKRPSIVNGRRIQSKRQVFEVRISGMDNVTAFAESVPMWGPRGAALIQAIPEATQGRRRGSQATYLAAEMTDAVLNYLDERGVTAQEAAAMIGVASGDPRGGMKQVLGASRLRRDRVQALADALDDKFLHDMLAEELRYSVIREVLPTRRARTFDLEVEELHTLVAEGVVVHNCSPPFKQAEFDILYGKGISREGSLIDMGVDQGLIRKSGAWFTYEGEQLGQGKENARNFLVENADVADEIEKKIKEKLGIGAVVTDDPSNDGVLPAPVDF

[8] = target: T2, Apoptotic protease-activating factor 1 (Homo sapiens, UniProt O14727); assay type: functional
T2 sequence (O14727 whole entry): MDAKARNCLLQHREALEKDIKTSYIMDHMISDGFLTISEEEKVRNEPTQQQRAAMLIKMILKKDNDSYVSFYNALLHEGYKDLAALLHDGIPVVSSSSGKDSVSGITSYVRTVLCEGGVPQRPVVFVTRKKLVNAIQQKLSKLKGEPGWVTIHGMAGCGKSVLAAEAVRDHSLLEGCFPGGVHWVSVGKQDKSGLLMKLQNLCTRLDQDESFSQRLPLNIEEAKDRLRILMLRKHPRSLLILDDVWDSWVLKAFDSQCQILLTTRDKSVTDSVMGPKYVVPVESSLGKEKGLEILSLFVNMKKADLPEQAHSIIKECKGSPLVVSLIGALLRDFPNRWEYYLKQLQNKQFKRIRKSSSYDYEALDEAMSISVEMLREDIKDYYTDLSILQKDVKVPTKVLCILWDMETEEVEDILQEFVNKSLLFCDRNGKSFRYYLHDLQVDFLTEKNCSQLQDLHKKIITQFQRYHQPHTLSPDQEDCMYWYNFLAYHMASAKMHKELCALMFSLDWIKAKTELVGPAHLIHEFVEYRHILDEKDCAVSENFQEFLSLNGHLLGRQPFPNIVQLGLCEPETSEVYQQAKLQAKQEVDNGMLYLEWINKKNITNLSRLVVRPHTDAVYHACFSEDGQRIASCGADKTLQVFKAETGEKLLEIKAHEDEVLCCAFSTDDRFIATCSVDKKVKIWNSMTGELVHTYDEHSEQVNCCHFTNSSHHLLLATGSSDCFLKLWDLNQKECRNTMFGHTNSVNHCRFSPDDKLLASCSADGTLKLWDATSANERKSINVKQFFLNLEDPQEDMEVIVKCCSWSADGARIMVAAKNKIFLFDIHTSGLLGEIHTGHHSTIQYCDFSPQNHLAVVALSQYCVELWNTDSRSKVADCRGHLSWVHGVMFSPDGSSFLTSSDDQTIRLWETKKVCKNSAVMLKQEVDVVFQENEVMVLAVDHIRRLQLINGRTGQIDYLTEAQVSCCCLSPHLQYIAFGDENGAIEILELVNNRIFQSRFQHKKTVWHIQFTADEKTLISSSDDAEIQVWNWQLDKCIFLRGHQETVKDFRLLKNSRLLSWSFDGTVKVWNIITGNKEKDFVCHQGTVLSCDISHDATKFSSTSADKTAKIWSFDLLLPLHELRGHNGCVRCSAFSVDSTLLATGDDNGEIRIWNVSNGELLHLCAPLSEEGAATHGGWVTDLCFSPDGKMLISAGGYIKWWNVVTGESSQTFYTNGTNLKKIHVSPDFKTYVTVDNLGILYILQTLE

[9] = target: T3, Mannose-6-phosphate isomerase (Homo sapiens, UniProt P34949); test: MPI inhibition at elevated mannose 6-phosphate – biochemical, fluorescence intensity, high mannose 6-phosphate, primary screen (AID 1220)
T3 sequence (P34949 whole entry): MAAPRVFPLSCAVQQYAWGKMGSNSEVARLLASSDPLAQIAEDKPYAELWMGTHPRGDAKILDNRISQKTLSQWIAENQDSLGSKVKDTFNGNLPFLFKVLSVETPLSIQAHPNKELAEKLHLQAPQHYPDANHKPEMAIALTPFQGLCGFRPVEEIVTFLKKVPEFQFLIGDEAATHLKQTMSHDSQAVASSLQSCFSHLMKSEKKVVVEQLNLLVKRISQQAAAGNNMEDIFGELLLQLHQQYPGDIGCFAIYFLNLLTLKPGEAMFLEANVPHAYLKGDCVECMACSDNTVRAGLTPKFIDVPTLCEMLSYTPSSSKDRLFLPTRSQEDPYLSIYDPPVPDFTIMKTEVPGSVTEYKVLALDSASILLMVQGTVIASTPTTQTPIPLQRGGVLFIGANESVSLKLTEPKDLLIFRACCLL

[10] = target: Glucose-6-phosphate 1-dehydrogenase (Homo sapiens, UniProt P11413); test: inhibition of Homo sapiens G6PD, dose series – biochemical, fluorescence, selectivity assay for P. falciparum G6PD inhibitor project, dose response (AID 504792); assay type: functional
[11] = test system: HT-1080; test: HT1080 cell viability loss – fluorescence readout (AID 620); assay type: functional, cell-based; details: Homo sapiens
[12] = target: Luciferin 4-monooxygenase (Photinus pyralis, UniProt P08659); test: Counter Screen for Luciferase-based Assay Positives. [Related pubchem assays: 620, 618, 411 ]
[13] = HIV-1 Vif–A3G interaction blockers – biochemical, TR-FRET, GST-Vif 1-94, biotin-A3G peptide, dose response retest, primary screen (AID 1117319); assay type: functional;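 also: TR-FRET signal of purified GST-Vif binding a biotinylated A3G peptide; inhibitors lower the FRET signal by blocking Vif and A3G binding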
[14] = target: T4, Streptokinase A (Streptococcus pyogenes serotype M1, UniProt P10520); test: viability-normalized secreted streptokinase activity reduction – plasminogen activation absorbance, OD405, dose response (AID 1914); assay type: functional, Streptococcus pyogenes M1 GAS;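 also: secreted streptokinase activity via plasminogen activation per viability signal from cell pellet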
T4 sequence (P10520 whole entry): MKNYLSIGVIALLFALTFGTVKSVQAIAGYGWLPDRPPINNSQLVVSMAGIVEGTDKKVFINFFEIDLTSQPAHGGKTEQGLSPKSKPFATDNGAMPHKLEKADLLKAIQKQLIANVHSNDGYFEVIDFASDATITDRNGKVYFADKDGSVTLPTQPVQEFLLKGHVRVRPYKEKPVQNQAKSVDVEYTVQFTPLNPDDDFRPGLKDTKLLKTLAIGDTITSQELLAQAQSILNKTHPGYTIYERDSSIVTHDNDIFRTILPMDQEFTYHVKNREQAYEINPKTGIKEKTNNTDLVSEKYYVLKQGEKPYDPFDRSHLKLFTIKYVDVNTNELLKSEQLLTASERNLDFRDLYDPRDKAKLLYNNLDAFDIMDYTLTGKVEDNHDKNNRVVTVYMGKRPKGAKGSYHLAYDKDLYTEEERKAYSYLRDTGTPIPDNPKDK

[15] = test system: Streptococcus sp. 'group A'; test: Streptococcus pyogenes SK(-)GAS viability under kanamycin – luminescence, BacTiterGlo, confirmation, counter-screen for streptokinase expression inhibitor project, dose response (AID 1900); assay type: functional, organism-based
[16] = test system: Streptococcus; test: GAS UMAA2166 growth inhibition – luminescence, BacTiterGlo, counter-screen for streptokinase expression inhibitor project, dose response (AID 1915); assay type: functional, organism-based;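 also: potency for reduction of bacterial viability or growth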
[17] = target: Estrogen receptor beta (Homo sapiens, UniProt Q92731);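 also: recombinant ER-beta bound to coactivator SRC1 peptide in presence of estradiol agonist; inhibitors block coactivator peptide binding and lower the FRET signal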
[18] = HEK-293T cell viability reduction – luminescence, B-cell screen hits, cytotoxicity control for BCR NF-kB inhibitor project, dose response (AID 489021); assay type: functional, cell-based;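 also: HEK-293T cells carrying an NF-kB luciferase reporter; cells exposed to compound for about 14 hours before viability readout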
[19] = A Cell Based Secondary Assay To Explore Cytotoxicity of Compounds that Sensitize Mycobacterium Tuberculosis to Beta-Lactam Antibiotics.; assay type: functional
[20] = HEK-293T viability loss after treatment – luminescence, T-cell screen hits, cytotoxicity control for TCR NF-kB inhibitor project, dose response (AID 489026); assay type: functional, cell-based;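 also: cells exposed to compound about 14 hours before the viability readout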
[21] = target: Eukaryotic translation initiation factor 4E (Mus musculus, UniProt P63073); test: blockers of eIF4G binding by eIF4E – biochemical, TR-FRET, dose response (AID 855); assay type: functional;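 also: potency for disrupting eIF4E binding to eIF4GI seen as loss of FRET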
[22] = target: T5, Rac GTPase-activating protein 1 (Homo sapiens, UniProt Q9H0H5); test: blockers of MgcRacGAP-driven Rac1 GTP hydrolysis – biochemical, ADP Hunter fluorescence, primary and confirmatory, confirmation (AID 624330); assay type: functional
T5 sequence (Q9H0H5 whole entry): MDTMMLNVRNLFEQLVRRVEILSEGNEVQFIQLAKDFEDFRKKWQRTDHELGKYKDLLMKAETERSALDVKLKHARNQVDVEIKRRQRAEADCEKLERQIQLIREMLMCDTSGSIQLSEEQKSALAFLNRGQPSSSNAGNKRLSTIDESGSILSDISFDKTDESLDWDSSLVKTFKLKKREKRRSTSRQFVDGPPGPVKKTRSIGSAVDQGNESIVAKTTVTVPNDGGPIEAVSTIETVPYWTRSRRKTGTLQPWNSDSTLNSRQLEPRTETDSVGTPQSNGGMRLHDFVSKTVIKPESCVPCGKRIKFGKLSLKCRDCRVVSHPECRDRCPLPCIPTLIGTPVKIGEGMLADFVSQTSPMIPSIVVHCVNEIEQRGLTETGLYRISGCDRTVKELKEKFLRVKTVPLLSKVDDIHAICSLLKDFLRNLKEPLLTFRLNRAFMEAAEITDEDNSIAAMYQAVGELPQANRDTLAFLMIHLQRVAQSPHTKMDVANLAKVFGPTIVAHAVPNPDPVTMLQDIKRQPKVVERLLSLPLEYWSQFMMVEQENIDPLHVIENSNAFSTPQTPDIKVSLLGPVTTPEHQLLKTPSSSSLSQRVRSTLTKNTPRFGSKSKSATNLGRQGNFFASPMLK

Chain of DNA dC->dU-editing enzyme APOBEC-3A (P31941 whole entry): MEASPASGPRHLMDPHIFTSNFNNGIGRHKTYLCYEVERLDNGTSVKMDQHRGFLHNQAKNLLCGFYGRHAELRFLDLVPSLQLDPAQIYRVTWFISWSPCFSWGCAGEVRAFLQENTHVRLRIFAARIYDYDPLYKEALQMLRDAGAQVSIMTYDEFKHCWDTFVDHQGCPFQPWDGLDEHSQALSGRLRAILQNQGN
Chain of DNA dC->dU-editing enzyme APOBEC-3G (Q9HC16 whole entry): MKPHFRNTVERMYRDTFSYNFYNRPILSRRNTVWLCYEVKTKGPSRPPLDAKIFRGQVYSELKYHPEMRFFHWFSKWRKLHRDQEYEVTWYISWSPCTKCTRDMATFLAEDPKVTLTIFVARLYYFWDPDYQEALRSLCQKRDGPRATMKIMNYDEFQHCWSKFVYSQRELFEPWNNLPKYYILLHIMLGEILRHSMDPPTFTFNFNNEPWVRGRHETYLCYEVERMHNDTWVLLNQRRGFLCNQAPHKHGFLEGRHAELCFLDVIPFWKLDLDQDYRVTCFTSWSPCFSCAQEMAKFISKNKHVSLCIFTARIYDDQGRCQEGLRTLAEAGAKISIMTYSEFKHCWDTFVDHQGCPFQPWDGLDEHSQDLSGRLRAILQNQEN
Chain of Eukaryotic translation initiation factor 4E (P63073 whole entry): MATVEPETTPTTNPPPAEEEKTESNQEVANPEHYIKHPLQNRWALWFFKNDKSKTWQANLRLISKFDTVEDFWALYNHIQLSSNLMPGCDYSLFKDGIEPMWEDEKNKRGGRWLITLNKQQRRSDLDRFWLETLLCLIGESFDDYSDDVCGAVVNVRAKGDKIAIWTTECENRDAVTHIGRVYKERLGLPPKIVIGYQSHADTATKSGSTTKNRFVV
Chain of Luciferin 4-monooxygenase (P08659 whole entry): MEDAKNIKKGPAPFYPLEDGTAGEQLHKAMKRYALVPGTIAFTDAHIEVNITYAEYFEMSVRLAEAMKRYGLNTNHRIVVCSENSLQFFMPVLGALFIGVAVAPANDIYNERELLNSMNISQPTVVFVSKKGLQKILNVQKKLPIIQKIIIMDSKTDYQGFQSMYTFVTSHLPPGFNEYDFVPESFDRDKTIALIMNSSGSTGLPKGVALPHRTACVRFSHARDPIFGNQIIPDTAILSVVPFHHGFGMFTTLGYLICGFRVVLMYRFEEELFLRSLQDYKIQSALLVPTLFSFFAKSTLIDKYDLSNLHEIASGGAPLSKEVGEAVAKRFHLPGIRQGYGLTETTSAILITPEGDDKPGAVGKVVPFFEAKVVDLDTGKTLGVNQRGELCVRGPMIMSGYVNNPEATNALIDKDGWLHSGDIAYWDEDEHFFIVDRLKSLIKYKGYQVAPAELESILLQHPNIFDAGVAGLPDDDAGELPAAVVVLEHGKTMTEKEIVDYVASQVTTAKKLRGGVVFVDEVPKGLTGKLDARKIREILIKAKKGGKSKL
Chain of Estrogen receptor beta (Q92731 whole entry): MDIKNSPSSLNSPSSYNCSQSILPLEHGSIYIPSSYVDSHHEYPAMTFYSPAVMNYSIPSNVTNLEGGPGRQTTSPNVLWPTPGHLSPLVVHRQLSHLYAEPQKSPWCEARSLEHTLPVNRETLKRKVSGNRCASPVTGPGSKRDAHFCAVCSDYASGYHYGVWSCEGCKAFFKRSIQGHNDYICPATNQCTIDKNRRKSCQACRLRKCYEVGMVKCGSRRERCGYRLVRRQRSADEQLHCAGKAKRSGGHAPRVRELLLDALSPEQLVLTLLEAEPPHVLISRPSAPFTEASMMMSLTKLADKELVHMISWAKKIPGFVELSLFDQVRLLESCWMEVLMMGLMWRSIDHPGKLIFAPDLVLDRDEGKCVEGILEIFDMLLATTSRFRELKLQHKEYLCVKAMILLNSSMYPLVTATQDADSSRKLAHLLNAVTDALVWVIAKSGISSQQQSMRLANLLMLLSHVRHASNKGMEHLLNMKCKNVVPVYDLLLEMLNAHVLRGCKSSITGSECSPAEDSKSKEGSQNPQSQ
Chain of Cytochrome P450 2C9 (P11712 whole entry): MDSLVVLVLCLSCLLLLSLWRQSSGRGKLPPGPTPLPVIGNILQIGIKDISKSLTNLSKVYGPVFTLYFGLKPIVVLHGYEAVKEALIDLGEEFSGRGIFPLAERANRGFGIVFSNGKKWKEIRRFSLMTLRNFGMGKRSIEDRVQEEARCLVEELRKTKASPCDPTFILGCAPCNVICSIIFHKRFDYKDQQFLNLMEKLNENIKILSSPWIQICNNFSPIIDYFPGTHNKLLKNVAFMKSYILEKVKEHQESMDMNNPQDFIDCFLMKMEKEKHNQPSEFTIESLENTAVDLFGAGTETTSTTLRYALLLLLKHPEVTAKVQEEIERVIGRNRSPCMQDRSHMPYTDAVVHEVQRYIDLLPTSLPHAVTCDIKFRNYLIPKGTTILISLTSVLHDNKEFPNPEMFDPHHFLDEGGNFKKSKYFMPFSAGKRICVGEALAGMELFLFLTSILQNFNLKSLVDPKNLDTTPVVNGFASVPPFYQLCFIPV
Chain of Glucose-6-phosphate 1-dehydrogenase (P11413 whole entry): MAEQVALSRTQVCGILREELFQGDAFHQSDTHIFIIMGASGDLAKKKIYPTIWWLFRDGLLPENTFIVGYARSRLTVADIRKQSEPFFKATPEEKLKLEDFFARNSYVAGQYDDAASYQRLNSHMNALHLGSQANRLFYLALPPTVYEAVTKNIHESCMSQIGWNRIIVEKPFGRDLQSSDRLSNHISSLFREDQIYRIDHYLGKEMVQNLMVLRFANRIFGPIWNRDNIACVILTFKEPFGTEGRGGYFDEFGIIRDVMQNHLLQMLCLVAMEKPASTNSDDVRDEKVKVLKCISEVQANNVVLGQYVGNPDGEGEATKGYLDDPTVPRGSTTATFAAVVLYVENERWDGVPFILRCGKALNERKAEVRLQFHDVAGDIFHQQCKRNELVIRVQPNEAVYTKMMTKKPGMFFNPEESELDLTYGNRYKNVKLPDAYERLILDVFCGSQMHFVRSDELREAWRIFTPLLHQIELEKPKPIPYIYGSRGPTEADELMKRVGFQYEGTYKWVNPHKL

## CCOC(=O)c1nc(O)c2c(C)c(C)sc2n1
[1]
  AC50: 20 µM (inconclusive)
[2]
  CC50: > 40 µM (active)

## CCC(C)Sc1nc2c(c(=O)[nH]c(=O)n2C)n1CC(O)COc1ccccc1C (stereo unspecified)
[3]
  IC50: > 83.3 µM (inactive)
[4]
  IC50: > 109 µM (inactive)

## CC(=O)OCCCn1c(C)[n+](C)c2cc(Cl)c(Cl)cc21
[5]
  IC50: 2.41 µM (active)
[6]
  IC50: 2.27 µM (active)

## CCCCCn1c(N)c(C(=O)NCc2cccs2)c2nc3ccccc3nc21
[7]
  EC50: 1.24 µM (active)
[8]
  IC50: 53.7 µM (active)
[9]
  IC50: > 50 µM (not active)

## CC1=CC(C)(C)[N+](C)(C)c2ccc(C)cc21
[5]
  IC50: 3.44 µM (active)
[6]
  IC50: 2.06 µM (active)

## CCN(CC)CCCN1C(=O)CSC1c1ccc2c(c1)OCO2 (stereo unspecified)
[3]
  IC50: > 83.3 µM (inactive)
[4]
  IC50: > 109 µM (inactive)

## CCC(c1ccc(O)c(O)c1)C(CC)c1ccc(O)c(O)c1 (stereo unspecified)
[10]
  IC50: > 80 µM (inactive)
[2]
  CC50: 11.7 µM (active)

## Cc1c(C(=O)NCC2CCCO2)oc2ccc3c(c12)C(=O)CC(C)(C)O3 (stereo unspecified)
[11]
  EC50: > 50 µM (not active)
[12]
  EC50: 0.54 µM (active)

## CCC(Sc1nc2cc(OC)c(OC)cc2c(=O)n1Cc1ccco1)C(=O)NCCOC (stereo unspecified)
[13]
  IC50: > 100 µM (active)

## COC(=O)c1c[nH]nc1N=C(S)Nc1ccc(C)cc1Cl
[14]
  EC50: 56.8 µM (active)
[13]
  IC50: > 100 µM (active)
[15]
  EC50: 51.6 µM (active)
[16]
  EC50: > 150 µM (not active)

## CC(=O)OC(COC1C[C@@H]2CC[C@@]1(C)C2(C)C)C[N+]1(C)CCCCC1 (stereo partly specified)
[5]
  IC50: 3.55 µM (active)
[6]
  IC50: 1.91 µM (active)

## CN(CC(O)COc1ccc(S(=O)(=O)N2CCOCC2)cc1)C1CCCCC1 (stereo unspecified)
[17]
  IC50: > 50 µM (not active)

## COc1ccc(CC(=O)Nc2ccc(C(N)=O)cc2)cc1
[3]
  IC50: > 83.3 µM (inactive)
[4]
  IC50: > 109 µM (inactive)

## O=C(Cn1cnc2c(nnn2Cc2ccc(Cl)cc2)c1=O)NCc1ccco1
[13]
  IC50: > 100 µM (active)

## CC(=O)c1sc(NC(=O)C2CCN(C(=O)c3ccccc3C)CC2)nc1-c1ccccc1
[2]
  CC50: > 40 µM (active)

## COCCCn1c(=O)/c(=C\c2cccc(OC)c2OC)s/c1=C(/C#N)C(=O)Nc1ccc(C(=O)O)cc1
[18]
  IC50: > 80 µM (inactive)
[19]
  CC50: > 40 µM (active)

## Oc1cc(-c2ccccc2)nc2ccccc12
[20]
  IC50: > 80 µM (inactive)
[21]
  IC50: > 64 µM (inactive)

## Sc1nnc(-c2ccco2)n1/N=C/c1ccc(Cl)cc1
[21]
  IC50: > 64 µM (inactive)
[22]
  IC50: 58.3 µM (active)

## Cc1ccc2c(c1)N=C(c1ccc(Cl)cc1)CO2
[13]
  IC50: > 100 µM (active)
